What was measured:
Test in all cases: relative viability (nuclei count vs DMSO), 5 days (fraction); higher = more cells survive
VX-11e + Crizotinib = compound: CC1=CN=C(N=C1C2=CNC(=C2)C(=O)N[C@H](CO)C3=CC(=CC=C3)Cl)NC4=C(C=C(C=C4)F)Cl [VX-11e] + C[C@@H](Oc1cc(-c2cnn(C3CCNCC3)c2)cnc1N)c1c(Cl)ccc(F)c1Cl [Crizotinib] (partner 1 µM)
Summary of the method: (§1)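 Each reported value is a median over duplicate plates. It expresses relative viability: treated-well nuclei count divided by vehicle-well nuclei count. Lung cancer cell lines in 1536-well plates were dosed by pin tool a day after seeding, alone with one drug or with a fixed anchor-drug dose plus five library-drug doses (not always all listed) in √10 steps, and nuclei were counted after 5 days.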

VX-11e + Lapatinib = compound: CC1=CN=C(N=C1C2=CNC(=C2)C(=O)N[C@H](CO)C3=CC(=CC=C3)Cl)NC4=C(C=C(C=C4)F)Cl [VX-11e] + CS(=O)(=O)CCNCc1ccc(-c2ccc3ncnc(Nc4ccc(OCc5cccc(F)c5)c(Cl)c4)c3c2)o1 [Lapatinib] (partner 2 µM)
Summary of the method: as §1

VX-11e + Decitabine = compound: CC1=CN=C(N=C1C2=CNC(=C2)C(=O)N[C@H](CO)C3=CC(=CC=C3)Cl)NC4=C(C=C(C=C4)F)Cl [VX-11e] + Nc1ncn([C@H]2C[C@H](O)[C@@H](CO)O2)c(=O)n1 [Decitabine] (partner 2 µM)
Summary of the method: as §1

VX-11e + Tozasertib = compound: CC1=CN=C(N=C1C2=CNC(=C2)C(=O)N[C@H](CO)C3=CC(=CC=C3)Cl)NC4=C(C=C(C=C4)F)Cl [VX-11e] + Cc1cc(Nc2cc(N3CCN(C)CC3)nc(Sc3ccc(NC(=O)C4CC4)cc3)n2)n[nH]1 [Tozasertib] (partner 0.1 µM)
Summary of the method: as §1

Row | Cell Line | relative viability (VX-11e + Crizotinib; first compound 0.04 µM) | relative viability (VX-11e + Crizotinib; first compound 0.1265 µM) | relative viability (VX-11e + Crizotinib; first compound 0.4 µM) | relative viability (VX-11e + Crizotinib; first compound 1.265 µM) | relative viability (VX-11e + Crizotinib; first compound 4 µM) | relative viability (VX-11e + Lapatinib; first compound 0.04 µM) | relative viability (VX-11e + Lapatinib; first compound 0.1265 µM) | relative viability (VX-11e + Lapatinib; first compound 0.4 µM) | relative viability (VX-11e + Lapatinib; first compound 1.265 µM) | relative viability (VX-11e + Lapatinib; first compound 4 µM) | relative viability (VX-11e + Decitabine; first compound 0.04 µM) | relative viability (VX-11e + Decitabine; first compound 0.1265 µM) | relative viability (VX-11e + Decitabine; first compound 0.4 µM) | relative viability (VX-11e + Decitabine; first compound 1.265 µM) | relative viability (VX-11e + Decitabine; first compound 4 µM) | relative viability (VX-11e + Tozasertib; first compound 0.04 µM) | relative viability (VX-11e + Tozasertib; first compound 0.1265 µM) | relative viability (VX-11e + Tozasertib; first compound 0.4 µM) | relative viability (VX-11e + Tozasertib; first compound 1.265 µM) | relative viability (VX-11e + Tozasertib; first compound 4 µM)
1 | NCI-H2023 | 0.633 | 0.606 | 0.519 | 0.427 | 0.338 | 0.72 | 0.874 | 0.1 | 0.387 | 0.303 | 0.207 | 0.222 | 0.222 | 0.256 | 0.228 | 0.279 | 0.161 | 0.161 | 0.142 | 0.0967
2 | NCI-H2085 | 0.88 | 0.817 | 0.746 | 0.714 | 0.619 | 0.596 | 0.765 | 0.73 | 0.647 | 0.608 | 0.658 | 0.542 | 0.525 | 0.539 | 0.553 | 0.897 | 0.724 | 0.659 | 0.644 | 0.413
3 | NCI-H2087 | 1.03 | 0.809 | 0.944 | 1.07 | 0.502 | 1.23 | 0.867 | 0.42 | 0.979 | 0.295 | 0.318 | 0.295 |  | 0.182 | 0.158 | 0.28 | 0.208 |  | 0.203 | 0.167
4 | NCI-H2126 |  | 1.03 | 0.987 | 1.02 | 0.901 |  | 0.752 | 0.752 | 0.742 | 0.599 | 0.561 | 0.608 | 0.558 | 0.614 | 0.573 | 0.828 | 0.78 |  | 0.666 | 0.6
5 | NCI-H2170 | 1.18 | 1.04 | 1.23 | 1.03 | 1.1 | 0.229 | 0.259 | 0.231 | 0.243 | 0.252 | 0.477 | 0.442 | 0.516 | 0.541 | 0.547 | 0.81 | 0.687 | 0.734 | 0.69 | 0.686
6 | NCI-H2347 | 0.677 | 0.831 | 0.605 | 0.517 | 0.406 | 1.05 | 0.878 | 0.809 | 0.809 | 0.453 | 0.604 | 0.554 | 0.504 | 0.534 | 0.661 | 0.646 | 0.599 | 0.508 | 0.449 | 0.276
7 | NCI-H2405 | 0.892 | 0.805 | 0.821 | 0.766 | 0.505 | 1.07 | 1.01 |  | 1.05 | 0.349 | 0.761 | 0.733 | 0.305 | 0.776 | 0.443 | 0.804 | 0.757 | 0.768 | 0.779 | 0.256
8 | NCI-H3122 | 0.302 | 0.288 | 0.275 | 0.35 | 0.226 | 1.07 | 0.98 | 0.855 | 0.892 | 0.626 | 0.418 | 0.484 | 0.335 | 0.39 | 0.209 | 0.452 | 0.413 |  | 0.23 | 0.173
9 | PC-3 [JPC-3] | 0.993 | 0.963 | 0.93 | 1.07 | 0.845 | 0.384 | 0.485 | 0.436 | 0.453 | 0.445 | 0.839 | 0.813 | 0.809 | 0.788 | 0.705 | 0.892 | 0.863 | 0.829 | 0.926 | 0.729
10 | PC-14 | 0.993 | 0.916 | 0.861 | 0.878 | 0.506 | 0.275 | 0.327 | 0.251 | 0.35 | 0.203 | 0.243 | 0.19 | 0.202 | 0.247 | 0.235 | 0.66 | 0.469 | 0.395 | 0.331 | 0.278
11 | RERF-LC-KJ | 0.899 | 0.834 | 0.881 | 0.863 | 0.753 | 0.833 | 0.776 | 0.879 | 0.848 | 0.649 | 0.707 | 0.703 | 0.592 | 0.807 | 0.62 | 0.529 | 0.452 | 0.564 | 0.457 | 0.29
12 | SK-LU-1 | 0.987 | 0.761 | 0.789 | 0.735 | 0.407 | 0.897 | 0.744 | 0.524 | 0.752 | 0.272 | 0.619 | 0.589 | 0.472 | 0.668 | 0.308 | 0.348 | 0.298 |  | 0.338 | 0.194
13 | SK-MES-1 | 1.09 | 0.966 | 1.05 | 0.964 | 0.643 | 0.452 | 0.414 | 0.47 | 0.436 | 0.282 | 0.341 | 0.384 | 0.363 | 0.4 | 0.272 | 0.884 | 0.873 | 0.844 | 0.908 | 0.376
14 | SW 1573 | 0.871 | 0.789 | 0.743 | 0.793 | 0.451 | 1.11 | 0.979 | 1.07 | 0.891 | 0.472 | 0.384 | 0.446 | 0.363 | 0.372 | 0.22 | 0.237 | 0.21 | 0.224 | 0.154 | 0.11
15 | UMC-11 | 0.699 | 0.785 | 0.574 | 0.511 | 0.662 | 0.546 | 0.94 | 0.712 | 0.602 | 0.758 |  | 0.495 | 0.472 | 0.454 | 0.594 | 0.185 | 0.201 | 0.206 | 0.182 | 0.19

Reference: the supplement of paper PMC10307832
